What all share (assay type): in vivo
The subject of assay [1] is Musca domestica. In words: Test Example 4: filter paper/sucrose bait test on Musca domestica. The following applies: 24 h, read-out: pest death rate. As for the experimental part:
A formulation of any one of the present compounds (1), (4), (5), (7), (11), (12), (13), (18t), (18c), (19), (20), (21), (22), (24), (25t), (25c), (26t), (26c), (27), (29), (30), (31), (32), (33), (34), (35), (40), (41), (43), (49), (50) and (55) obtained according to Formulation Example 36 was diluted with water so that the active ingredient concentration was 500 ppm to obtain a test solution.
A filter paper having a diameter of 5.5 cm was spread on the bottom of a polyethylene cup having a diameter of 5.5 cm and 0.7 ml of the test solution was added dropwise onto the filter paper. As a bait 30 mg of sucrose was uniformly placed on the filter paper. Into the polyethylene cup, 10 female imagoes of Musca domestica were released and the cup was sealed with a lid. After 24 hours, the number of surviving Musca domestica was examined and the death rate of the pest was calculated.

Assay [2] concerns Blattalla germanica. In words: Test Example 5: filter paper/sucrose bait test on Blattalla germanica. The following applies: 144 h, read-out: pest death rate. As for the experimental part:
A formulation of any one of the present compounds (4), (5), (7), (12), (13), (18t), (18c), (22), (25t), (25c), (26t), (26c), (29), (30), (31), (32), (33), (34), (40), (41), (43), (49) and (55) obtained according to Formulation Example 36 was diluted with water so that the active ingredient concentration was 500 ppm to obtain a test solution.
A filter paper having a diameter of 5.5 cm was spread on the bottom of a polyethylene cup having a diameter of 5.5 cm and 0.7 ml of the test solution was added dropwise onto the filter paper. As a bait 30 mg of sucrose was uniformly placed on the filter paper. Into the polyethylene cup, 2 male imagoes of Blattalla germanica were released and the cup was sealed with a lid. After 6 days, the number of surviving Blattalla germanica was examined and the death rate of the pest was calculated.

Assay [3] relates to Haemaphysalis longicornis. In words: Test Example 7: treated filter paper pouch test on ticks. The conditions noted are these: Haemaphysalis longicornis, 48 h; filter paper treated with 100 mg/m^2; non-blood-sucking nymphal ticks, 10 ticks/group; two days after; read-out: pest death rate. As to the method:
Five milligrams of any one of the present compounds (4), (7), (18t), (22), (25t), (26t), (29), (30), (31), (32), (33), (34), (35), (40), (41), (42), (43), (44) and (55) was dissolved in 10 mL of acetone. One milliliter of the acetone solution was uniformly applied on one side of a filter paper (TOYO No. 2; 5×10 cm), so that the filter paper having a surface area of 50 cm^2 was treated with 100 mg/m^2 of the present compound. After drying, the filter paper was folded in two and its edges were clipped to make a pouch. Test ticks (non-blood-sucking nymphal ticks, Haemaphysalis longicornis, 10 ticks/group) were put into the pouch, and the pouch was sealed with clips. Two days after, the number of surviving ticks was examined and the death rate was calculated.

Assay [4] has as its system Culex pipiens pallens. In words: Test Example 6: larvae of Culex pipiens pallens in treated water. The conditions noted are these: 24 h, read-out: pest death rate. As to the method: A formulation of any one of the present compounds (7), (11), (12), (13), (17), (18t), (18c), (22), (24), (25t), (25c), (26t), (26c), (27), (29), (33), (34), (35), (36), (38), (40), (41), (43), (47), (49), (50) and (55) obtained according to Formulation Example 36 was diluted with water so that the active ingredient concentration was 500 ppm to obtain a test solution.
To 100 mL of ion-exchanged water, 0.7 ml of the test solution was added (active ingredient concentration: 3.5 ppm). Into the solution, 20 last-instar larvae of Culex pipiens pallens were released. One day after, the number of surviving Culex pipiens pallens was examined and the death rate of the pest was calculated.

We go through nine compounds from patent US8247596B2 (Sumitomo Chemical Company, Limited, priority 2007, dated 2012).

As for `C#CC1(F)CCC(CS(=O)(=O)CCC(F)(F)F)CC1` (stereo not drawn) [present compound (7)], the figures for the pest or weed control at 500 ppm in assay [1] and in assay [2] were no less than 90% and 100%, respectively. The pest or weed control at 100 mg/m2 in assay [3] came to 90%. Moreover, in assay [4], the pest or weed control at 3.5 ppm was no less than 95%.

Regarding `C#CC1CCC(CS(=O)(=O)CCC(F)(F)F)CC1` (stereo not drawn) [present compound (18t), 1-ethynyl-4-(3,3,3-trifluoropropylsulfonylmethyl)cyclohexane], the pest or weed control at 500 ppm was no less than 90% in assay [1] and 100% in assay [2]. Further, the pest or weed control at 100 mg/m2 in assay [3] is 90%. The pest or weed control at 3.5 ppm in assay [4] was no less than 95%.

As for `C#CC1CCC(C[S+]([O-])CCC(F)(F)F)CC1` (stereo not drawn) [present compound (26t), 1-ethynyl-4-(3,3,3-trifluoropropylsulfinylmethyl)cyclohexane], the pest or weed control at 500 ppm is no less than 90% in assay [1] and 100% in assay [2]. Further, in assay [3], the pest or weed control at 100 mg/m2 was 90%. Further, the pest or weed control at 3.5 ppm in assay [4] is no less than 95%.

Regarding `N#CC(C1CCC(F)(F)CC1)S(=O)(=O)CCC(F)(F)F` (stereo not drawn) [present compound (29), 2-(4,4-difluorocyclohexyl)-2-(3,3,3-trifluoropropylsulfonyl)acetonitrile], the pest or weed control at 500 ppm in assay [1] is no less than 90%; in assay [2] it was 100%. In addition, in assay [3], the pest or weed control at 100 mg/m2 amounted to 90%. Moreover, in assay [4], the pest or weed control at 3.5 ppm was no less than 95%.

Take `CON=C1CCC(C(C#N)S(=O)(=O)CCC(F)(F)F)CC1` (stereo not drawn) [present compound (33), 2-[4-(methoxyimino)cyclohexyl]-2-(3,3,3-trifluoropropylsulfonyl)acetonitrile]: the values for the pest or weed control at 500 ppm in assay [1] and in assay [2] were no less than 90% and 100%, respectively. Also, the pest or weed control at 100 mg/m2 in assay [3] is 90%. The pest or weed control at 3.5 ppm in assay [4] is no less than 95%.

With `N#CC(C1CCC(=NO)CC1)S(=O)(=O)CCC(F)(F)F` (stereo not drawn) [present compound (34), 2-[4-(hydroxyimino)cyclohexyl]-2-(3,3,3-trifluoropropylsulfonyl)acetonitrile], the pest or weed control at 500 ppm was no less than 90% in assay [1] and 100% in assay [2]. For the same compound, the pest or weed control at 100 mg/m2 in assay [3] worked out at 90%. Also, in assay [4], the pest or weed control at 3.5 ppm is no less than 95%.

`CON=C1CCC(C(C)(C#N)S(=O)(=O)CCC(F)(F)F)CC1` (stereo not drawn) [present compound (40), 2-[4-(methoxyimino)cyclohexyl]-2-(3,3,3-trifluoropropylsulfonyl)propionitrile]: the pest or weed control at 500 ppm in assay [1] was no less than 90%; in assay [2], 100%. The pest or weed control at 100 mg/m2 in assay [3] was 90%. Moreover, the pest or weed control at 3.5 ppm in assay [4] is no less than 95%.

As for `CCC(C#N)(C1CCC(=NOC)CC1)S(=O)(=O)CCC(F)(F)F` (stereo not drawn) [present compound (41), 2-[4-(methoxyimino)cyclohexyl]-2-(3,3,3-trifluoropropylsulfonyl)butyronitrile], the pest or weed control at 500 ppm is no less than 90% in assay [1] and 100% in assay [2]. In addition, the pest or weed control at 100 mg/m2 in assay [3] stood at 90%. Moreover, the pest or weed control at 3.5 ppm in assay [4] is no less than 95%.

For `CON=C1CCC(C(C#N)S(=O)(=O)CCC(F)(F)C(F)(F)F)CC1` (stereo not drawn) [present compound (55), 2-[4-(methoxyimino)cyclohexyl]-2-(3,3,4,4,4-pentafluorobutylsulfonyl)acetonitrile], the results for the pest or weed control at 500 ppm in assay [1] and in assay [2] were no less than 90% and 100%, respectively. Besides, the pest or weed control at 100 mg/m2 in assay [3] came out at 90%. In assay [4], the pest or weed control at 3.5 ppm is no less than 95%.
